Here are results for 20 compounds from patent publication US20260356841A1, “HETEROCYCLIC PYRIDINONE COMPOUNDS AS TRIGGERING RECEPTOR EXPRESSED ON MYELOID CELLS 2 AGONISTS AND METHODS OF USE” (Vigil Neuroscience, Inc., priority 2023, published 2026).

Where only a bound is given, the exact number is not on record here.

T1 sequence (Q9NZC2 19-230): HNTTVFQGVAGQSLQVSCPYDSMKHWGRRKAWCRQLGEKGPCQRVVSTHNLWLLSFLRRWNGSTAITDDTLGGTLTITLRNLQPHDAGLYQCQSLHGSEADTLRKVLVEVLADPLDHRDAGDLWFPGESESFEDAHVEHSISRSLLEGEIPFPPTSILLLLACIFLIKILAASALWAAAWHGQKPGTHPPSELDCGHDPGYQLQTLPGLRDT
T1 sequence (O43914 22-113 partner): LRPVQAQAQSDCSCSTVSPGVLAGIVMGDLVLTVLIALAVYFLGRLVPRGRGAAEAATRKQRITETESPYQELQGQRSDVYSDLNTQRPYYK

The first assay addresses T1, human TREM2 (Homo sapiens, UniProt Q9NZC2).
T1 construct: expressed in transfected cells; host or cells: HEK293T (HEK293T-hTREM2 cells)
Briefly: TREM2 agonist potency by cellular phosphorylation of Spleen Tyrosine Kinase (Syk), AlphaLisa, HEK293T-hTREM2 cells. It is filed as cell-based.
Details: not given
As to the method:
Measurement of TREM2 agonist potency was done using a HEK cell line expressing human TREM2 and DAP12 (HEK293T-hTREM2 cells). Binding of small molecules to, and activation of, TREM2 increases the phosphorylation of Syk. The resultant levels of Syk phosphorylation are measured using a commercial AlphaLisa reagent kit. To perform the assay, HEK-hTREM2 cells were plated at 14,000 cells per well in a 384 well plate, in 25 μL of complete growth media and incubated at 37° C., 5% CO2 for 20-24 hours.
Prior to the assay, test compounds were diluted in the 384 well plates in assay buffer and allowed to equilibrate for 30 minutes. Growth media was removed from cell plates by inversion on blotting paper, and 25 μL of test articles in assay buffer was added to cells. Cells were incubated for 45 minutes at room temperature. After 45 minutes, assay buffer was removed and 10 μL of lysis buffer was added. Plates were shaken for 20 minutes at 350 RPM at room temperature. After complete lysis, AlphaLisa reagents were added to the lysate, and fluorescence intensity was measured using a Perkin Elmer Envision plate reader. Intensities were used to generate a standard curve, and % activation was calculated. Curve fitting was performed using Prism v9 software, log (agonist) vs response-variable slope (four parameters), and EC50s were calculated from the curve fit.
The results presented in Table B have been generated with the in vitro assay described above. This assay may be used to test any of the compounds described herein to assess and characterize a compound's ability to act as an agonist of TREM2.
For the compound `[2H]C([2H])([2H])C([2H])(n1cc([C@H]2C[C@@H](c3nc(C45CC(C(F)(F)F)(C4)C5)c4nc(C)c(C)nc4n3)CCO2)ccc1=O)C([2H])([2H])[2H]` [Example 88, 5-[(2R,4S)-4-[6,7-dimethyl-4-[3-(trifluoromethyl)-1-bicyclo[1.1.1]pentanyl]pteridin-2-yl]tetrahydropyran-2-yl]-1-[1,2,2,2-tetradeuterio-1-(trideuteriomethyl)ethyl]pyridin-2-one], the EC50 (usually the concentration at which the effect is half-maximal) is below 100 nM.

Still in this assay, the particulars now being: hTREM2 EC50 Data (HEK293 Cells); Syk phosphorylation, AlphaLisa; read-out: hTREM2 EC50.
Consider `Cc1nc2nc([C@H]3CCO[C@@H](c4ccc(=O)n(-c5csc(C6CC6)c5)c4)C3)nc(C34CC(C(F)(F)F)(C3)C4)c2nc1C` [Example 112], for which the EC50 was below 100 nM. Same read-out and setting: next, `Cc1nc2nc([C@H]3CCO[C@@H](c4ccc(=O)n(C)c4)C3)nc(C34CC(C(F)F)(C3)C4)c2nc1C` [Example 31, 5-[(2R,4S)-4-[4-[3-(difluoromethyl)-1-bicyclo[1.1.1]-pentanyl]-6,7-dimethyl-pteridin-2-yl]-tetrahydropyran-2-yl]-1-methyl-pyridin-2-one]: below 100 nM; `Cc1nc2nc([C@H]3CCO[C@@H](c4ccc(=O)n(C)c4)C3)nc(C34CC(CC(F)F)(C3)C4)c2nc1C` [Example 46, 5-[(2R,4S)-4-[4-[3-(2,2-difluoroethyl)-1-bicyclo[1.1.1]pentanyl]-6,7-dimethyl-pteridin-2-yl]tetrahydropyran-2-yl]-1-methyl-pyridin-2-one]: below 100 nM; `Cc1nc2nc(C3CCO[C@@H](c4ccc(=O)n(-c5cscn5)c4)C3)nc(C34CC(C(F)(F)F)(C3)C4)c2nc1C` (mixture of isomers) [Example 109, 5-((2R)-4-(6,7-dimethyl-4-(3-(trifluoromethyl)bicyclo-[1.1.1]pentan-1-yl)pteridin-2-yl)tetrahydro-2H-pyran-2-yl)-1-(thiazol-4-yl)pyridin-2(1H)-one]: below 100 nM. The same measure, in the same setting: in the case of `Cc1nc2nc([C@@H]3CCO[C@H](c4ccc(=O)n(CC(F)F)c4)C3)nc(C34CC(C(F)(F)F)(C3)C4)c2nc1C` [Example 72, 1-(2,2-difluoroethyl)-5-[(2S,4R)-4-[6,7-dimethyl-4-[3-(trifluoro-methyl)-1-bicyclo-[1.1.1]pentanyl]-pteridin-2-yl]tetrahydropyran-2-yl]pyridin-2-one] it was below 100 nM; in that of `Cc1nc2nc([C@H]3CCO[C@@H](c4ccc(=O)n(-c5cscn5)c4)C3)nc(C34CC(C(F)(F)F)(C3)C4)c2nc1C` [Example 110, 5-((2R,4S)-4-(6,7-dimethyl-4-(3-(trifluoromethyl)bicyclo[1.1.1]pentan-1-yl)pteridin-2-yl)tetrahydro-2H-pyran-2-yl)-1-(thiazol-4-yl)pyridin-2(1H)-one], below 100 nM. For `Cc1nc2nc([C@H]3CCO[C@@H](c4ccc(=O)n(C)c4)C3)nc(-c3ccc(C(F)(F)F)c(F)c3F)c2nc1C` [Example 18, 5-[(2R,4S)-4-[4-[2,3-difluoro-4-(trifluoromethyl)-phenyl]-6,7-dimethyl-pteridin-2-yl]tetrahydropyran-2-yl]-1-methyl-pyridin-2-one], the EC50 lay in the range of 100 to 500 nM. Same read-out and setting: in the case of `CN(C)c1nc2nc([C@H]3CCO[C@@H](c4ccc(=O)n(C)c4)C3)nc(-c3ccc(F)cc3F)c2s1` [Example 13, 5-[(2R,4S)-4-[7-(2,4-difluorophenyl)-2-(dimethylamino)thiazolo[4,5-d]pyrimidin-5-yl]tetrahydropyran-2-yl]-1-methyl-pyridin-2-one] it was 100 to 500 nM; in that of `Cc1nc2nc(N3C[C@@H](C)O[C@@H](c4ccc(=O)n(C)c4)C3)nc(-c3ccc(F)cc3F)c2nc1C` [Example 16, 5-[(2S,6R)-4-[4-(2,4-difluorophenyl)-6,7-dimethyl-pteridin-2-yl]-6-methyl-morpholin-2-yl]-1-methyl-pyridin-2-one], below 100 nM. On the same count and under the same terms, in the case of `Cc1nc2nc([C@H]3CCO[C@@H](c4ccc(=O)n(-c5cnco5)c4)C3)nc(C34CC(C(F)(F)F)(C3)C4)c2nc1C` [Example 116, 5-((2R,4S)-4-(6,7-dimethyl-4-(3-(trifluoromethyl)-bicyclo-[1.1.1]pentan-1-yl)pteridin-2-yl)tetrahydro-2H-pyran-2-yl)-1-(oxazol-5-yl)pyridin-2(1H)-one] it was below 100 nM; in that of `Cc1nc2c(C34CC(C(F)(F)F)(C3)C4)nc([C@H]3CCO[C@@H](c4ccc(=O)n(N)c4)C3)nc2c(=O)n1C` (racemic) [Example 218, 2,3-dimethyl-6-[rac-(2R,4S)-2-(1-amino-6-oxo-3-pyridyl)tetrahydropyran-4-yl]-8-[3-(trifluoromethyl)-1-bicyclo[1.1.1]pentanyl]pyrimido[5,4-d]pyrimidin-4-one], 100 to 500 nM; in that of `Cc1nc2nc([C@H]3CCO[C@@H](c4ccc(=O)n(C)c4)C3)nc(-c3cc(F)c(C(F)(F)F)cc3F)c2nc1C` [Example 350], below 100 nM. Regarding `Cc1nc2nc([C@H]3CCO[C@@H](c4ccc(=O)n(CC(F)F)c4)C3)nc(C34CC(C(F)(F)F)(C3)C4)c2nc1C` [Example 71, 1-(2,2-difluoroethyl)-5-[(2R,4S)-4-[6,7-dimethyl-4-[3-(trifluoromethyl)-1-bicyclo[1.1.1]pentanyl]pteridin-2-yl]tetrahydropyran-2-yl]pyridin-2-one], the EC50 is below 100 nM. Still for that read-out and setting: in the case of `Cc1nc2nc([C@H]3CCO[C@@H](c4ccc(=O)n(N(C)C)c4)C3)nc(C34CC(C(F)(F)F)(C3)C4)c2cc1C(F)(F)F` [Example 336, 1-(dimethylamino)-5-((2R,4S)-4-(7-methyl-6-(trifluoromethyl)-4-(3-(trifluoromethyl)bicyclo-[1.1.1]pentan-1-yl)pyrido[2,3-d]pyrimidin-2-yl)tetrahydro-2H-pyran-2-yl)pyridin-2 (1H)-one] it was below 100 nM; in that of `Cc1nc2c(C34CC(C(F)(F)F)(C3)C4)nc(N3C[C@@H](C)O[C@@H](c4ccc(=O)n(C5CC5)c4)C3)nc2c(=O)n1C` [Example 219], below 100 nM; in that of `CN(C)c1nc2nc([C@H]3CCO[C@H](c4ccc(=O)n(C)c4)C3)nc(-c3ccc(F)cc3F)c2s1` (stereo in doubt) [Example 11, 5-[(2S,4S)-4-[7-(2,4-difluorophenyl)-2-(dimethylamino)thiazolo[4,5-d]pyrimidin-5-yl]tetrahydropyran-2-yl]-1-methyl-pyridin-2-one], 100 to 500 nM. Regarding `Cc1cc2c(C34CC(C(F)(F)F)(C3)C4)nc([C@H]3CCO[C@@H](c4ccc(=O)n(C)c4)C3)nc2nc1C` [Example 324], the EC50 was below 100 nM.

For the compound `Cc1nc2nc([C@@H]3CCO[C@@H](c4ccc(=O)n(C5CC5)c4)C3)nc(-c3ccc(C(F)(F)F)cc3F)c2nc1C` [Example 66, 1-cyclopropyl-5-[(2R,4R)-4-[4-[2-fluoro-4-(trifluoromethyl)phenyl]-6,7-dimethyl-pteridin-2-yl]tetrahydropyran-2-yl]pyridin-2-one], the EC50 was below 100 nM. As to `Cc1nc2c(C34CC(C(F)(F)F)(C3)C4)nc([C@H]3CCO[C@@H](c4ccc(=O)n(C)c4)C3)nc2c(=O)n1C` (racemic) [Example 217, 2,3-dimethyl-6-[rac-(2R,4S)-2-(1-methyl-6-oxo-3-pyridyl)tetrahydropyran-4-yl]-8-[3-(trifluoromethyl)-1-bicyclo[1.1.1]pentanyl]pyrimido[5,4-d]pyrimidin-4-one], the EC50 is below 100 nM.
